This note sets out measurements from paper PMC12113707, “Microwave Assisted Synthesis of Antioxidant Dihydro-Pyrazole Hybrids as Possible Lipoxygenase Inhibitors” (Molecules, 2025).

Data set [1] can be described thus: Experimental lipophilicity RM by reverse phase thin layer chromatography (RP-TLC). Type of data set: physicochemical. Particulars: methanol-water mobile phase.
Data set [2] in a line: Interaction with the stable free radical DPPH (reducing activity). The note with it: 517 nm.
The nature of data set [3]: Inhibition of AAPH-induced linoleic acid peroxidation. Particulars: 37 °C, 234 nm.
In data set [4] the target is T1, soybean lipoxygenase (SLOX-1) (Glycine max, UniProt P08170).
T1 construct: 200 μL of plant-derived lipoxygenase solution (1:9 × 10^−4 w/v, in saline); purchased Sigma Chemical, Co; host or cells: soybean (plant-derived)
T1 sequence (P08170 1-839): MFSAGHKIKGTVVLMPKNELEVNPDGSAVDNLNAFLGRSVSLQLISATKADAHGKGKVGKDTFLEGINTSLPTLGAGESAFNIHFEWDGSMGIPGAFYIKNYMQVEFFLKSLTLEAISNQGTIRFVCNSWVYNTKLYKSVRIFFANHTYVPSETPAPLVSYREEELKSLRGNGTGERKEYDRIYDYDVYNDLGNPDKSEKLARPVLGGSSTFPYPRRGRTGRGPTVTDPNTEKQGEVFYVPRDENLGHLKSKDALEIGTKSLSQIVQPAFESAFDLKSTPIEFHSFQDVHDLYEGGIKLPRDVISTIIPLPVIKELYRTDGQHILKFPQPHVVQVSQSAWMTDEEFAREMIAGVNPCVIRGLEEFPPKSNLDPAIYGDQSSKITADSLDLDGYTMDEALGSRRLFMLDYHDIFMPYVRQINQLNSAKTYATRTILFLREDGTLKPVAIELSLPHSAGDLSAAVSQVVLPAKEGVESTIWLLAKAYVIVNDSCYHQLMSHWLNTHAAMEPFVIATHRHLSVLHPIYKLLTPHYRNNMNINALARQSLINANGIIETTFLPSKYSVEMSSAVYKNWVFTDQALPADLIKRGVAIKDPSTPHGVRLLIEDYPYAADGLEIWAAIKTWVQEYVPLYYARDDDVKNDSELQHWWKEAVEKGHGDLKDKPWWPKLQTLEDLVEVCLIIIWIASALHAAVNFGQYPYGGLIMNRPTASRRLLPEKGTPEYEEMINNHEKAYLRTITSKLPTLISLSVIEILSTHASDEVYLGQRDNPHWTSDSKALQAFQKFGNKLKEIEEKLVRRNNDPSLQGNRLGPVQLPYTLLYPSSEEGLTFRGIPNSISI
Put plainly: Inhibition of soybean lipoxygenase in vitro. The format is biochemical. The note with it: 100 μM, pH 9, sodium linoleate substrate; read-out: LOX% Inhibition, 100 μM (±SD). The gist of the method:
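SLOX-1 in Tris-HCl pH 9.0 with sodium linoleate (3 mM solution, stock level) as substrate and DMSO vehicle control. Conversion to 13-hydroperoxide followed by absorbance at 234 nm.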

Regarding `CN(C)c1ccc(/C=C/C2=NN(c3ccc(C#N)cc3)C(c3ccc(N(C)C)cc3)C2)cc1` (centres unmarked) [Compound 4e, (E)-4-(5-(4-(dimethylamino)phenyl)-3-(4-(dimethylamino)styryl)-4,5-dihydro-1H-pyrazo-1yl)-benzonitrile], in data set [1], the “RM ± SD” value was found to be 0.49 ± 0.029. Besides, in data set [2], the “RA%, 100 μM, 20 min (±SD)” value came out at 2 ± 0.1% and the “RA%, 100 μM, 60 min (±SD)” value is listed as 2 ± 0.2%. Further, the “AAPH% Inhibition, 100 μM (±SD)” value in data set [3] was found to be 74 ± 0.9%. Besides, the inhibition (usually the percentage by which the read-out fell short of the control) at 100 µM in data set [4] was 6 ± 0.5%.

As to `CN(C)c1ccc(/C=C/C(=O)/C=C/c2ccc(N(C)C)cc2)cc1` [Compound 1e, (1E,4E)-1,5-bis(4-dimethylaminophenyl)-1,4-pentadien-3-one], in data set [1], the “RM ± SD” value was −0.14 ± 0.009. Also, the “RA%, 100 μM, 60 min (±SD)” value in data set [2] was 100 ± 8.7%. Besides, the “AAPH% Inhibition, 100 μM (±SD)” value in data set [3] is reported as 50 ± 0.5%. Besides, the inhibition at 100 µM in data set [4] was 24 ± 0.6%.

On to `O=C(/C=C/c1ccc(Cl)cc1)/C=C/c1ccc(Cl)cc1` [Compound 1d, (1E,4E)-1,5-bis(4-chlorophenyl)-1,4-pentadien-3-one], for which the “RM ± SD” value in data set [1] is 0.50 ± 0.042. In data set [2], the “RA%, 100 μM, 20 min (±SD)” value was found to be 86 ± 4.5% and the “RA%, 100 μM, 60 min (±SD)” value turned out to be 95 ± 4.8%. Further, in data set [3], the “AAPH% Inhibition, 100 μM (±SD)” value came to 53 ± 0.6%. Also, the inhibition at 100 µM in data set [4] is 38 ± 0.7%.
